The numbers were not newly measured in paper PMC12296474, “Nano-Amounts of Glucagon Premixed With Fast-Acting Insulin Lispro: Effect on Insulin Absorption in Pigs” (Current Therapeutic Research, Clinical and Experimental, 2025), which cites them from elsewhere.

The test system of this data set is subcutaneous blood flow. Particulars: healthy subjects. As to the method: We focused our proof-of-concept experiments on adding nanogram doses of glucagon to Lyumjev^Ⓡ, the most fast-acting insulin formulation available on the market. As previously discussed, we believe glucagon may increase insulin absorption through significant but very localized subcutaneous vasodilation. Therefore, it is noteworthy that when glucagon was added to Lyumjev^Ⓡ, an insulin formulation that already contains 10 ng of the vasodilator treprostinil per unit of insulin, we observed even faster insulin absorption. This effect was not observed in experiments with glucagon added to Humalog^Ⓡ. ...

For glucagon, the “Enhancement of subcutaneous blood flow” value is 4% to 500.
